Test: RP, Waters ACQUITY UPLC HSS T3, 150 × 2.1 mm, 1.8 µm; A: water + 0.1% formic acid; B: acetonitrile + 0.1% formic acid; gradient (min/%B) 0/5 1/5 16/95 18/95
Settings: stereoisomer not certain
Work on `Cn1cnc(CC(N)C(=O)O)c1` (configuration not stated) yielded an LC retention time of 0.407 min.
In the case of `CC(C)CC(NC(=O)C(N)Cc1ccccc1)C(=O)O` (configuration not stated), the LC retention time is reported as 4.1 min.
`COc1cc(C=CCO)ccc1OC1OC(CO)C(O)C(O)C1O` (configuration not stated) showed an LC retention time of 3 min.
In the case of `O=C(O)CCCCCCCC(=O)O`, the LC retention time is reported as 5.35 min.
`NC(Cc1ccccc1)C(=O)NCC(=O)O` (configuration not stated) gave an LC retention time of 1.7 min.
`CC(C)C(N)C(=O)NC(Cc1ccccc1)C(=O)O` (configuration not stated) showed an LC retention time of 3.3 min.
With `O=Cc1c[nH]c2ccccc12` the LC retention time was 4.8 min.
For `O=Cc1c[nH]c2cccc(O)c12`, the LC retention time was 5.1 min.
Work on `Cc1cc2nc3c(=O)[nH]c(=O)nc-3n(CC(O)C(O)C(O)CO)c2cc1C` (configuration not stated) yielded an LC retention time of 3.92 min.
With `CC(CCC(=O)O)C1CCC2C3CCC4CC(O)CCC4(C)C3CC(O)C12C` (configuration not stated) the LC retention time was 10.7 min.
Molecule `COc1cc(C=CCO)cc(OC)c1OC1OC(CO)C(O)C(O)C1O` (configuration not stated) has an LC retention time of 3.2 min.
In the case of `O=C(O)C(O)Cc1ccccc1` (configuration not stated), the LC retention time is reported as 4.37 min.

Test: RP, Waters ACQUITY UPLC HSS T3, 100 × 1 mm, 1.8 µm; A: water + 0.1% formic acid, pH 3; B: acetonitrile + 0.1% formic acid, pH 3; gradient (min/%B) 0/5 1/5 16/95 18/95 20/5
Settings: stereoisomer not certain
For `CC(CCC(=O)O)C1CCC2C3C(O)CC4CC(O)CCC4(C)C3CC(O)C12C` (configuration not stated) [Cholic acid], the LC retention time was 8.94 min.
Molecule `Nc1ccc(C(=O)O)cc1` [paba] has an LC retention time of 1.95 min.
For `CC(CCC(=O)NCC(=O)O)C1CCC2C3C(O)CC4CC(O)CCC4(C)C3CC(O)C12C` (configuration not stated) [Glycocholic acid], the LC retention time was 7.92 min.
For `CC(C)C(N)C(=O)NC(Cc1ccccc1)C(=O)O` (stereo not drawn) [H-Val-Phe-OH], the LC retention time was 3.3 min.
With `CC(C(=O)O)C(=O)O` [Methylmalonic acid] the LC retention time was 0.733 min.
`CC(C)CC(NC(=O)C(N)C(C)C)C(=O)O` (stereo not drawn) [H-Val-Leu-OH] showed an LC retention time of 2.7 min.
For `CC(CCC(=O)O)C1CCC2C3CCC4CC(O)CCC4(C)C3CC(O)C12C` (configuration not stated) [Deoxycholic acid], the LC retention time was 10.7 min.
`O=C1CCC(C(=O)O)N1` (configuration not stated) [Pyroglutamic acid] showed an LC retention time of 0.687 min.
For `O=C(O)C(O)Cc1ccccc1` (configuration not stated) [phenyllactic acid], the LC retention time was 4.37 min.
`CC(CCC(=O)NCCS(=O)(=O)O)C1CCC2C3C(O)CC4CC(O)CCC4(C)C3CC(O)C12C` (configuration not stated) [Taurocholic acid] showed an LC retention time of 7.57 min.
With `O=c1[nH]cnc2c1ncn2C1OC(CO)C(O)C1O` (configuration not stated) [Inosine] the LC retention time was 0.839 min.
`CC12CCC(=O)C=C1CCC1C2C(O)CC2(C)C1CCC2(O)C(=O)CO` (configuration not stated) [hydrocortisone, cortisol] showed an LC retention time of 6.56 min.
For `O=C(O)C1Cc2c([nH]c3ccccc23)CN1` (configuration not stated) [3-Carboxy-1,2,3,4-tetrahydro-2-carboline], the LC retention time was 3.1 min.
For `CC(C)CC(N)C(=O)O` (configuration not stated) [Leucine], the LC retention time was 0.795 min.
For `CC(C)CC(NC(=O)C(N)Cc1ccccc1)C(=O)O` (stereo not drawn) [H-Phe-Leu-OH], the LC retention time was 4.1 min.
Work on `COc1cc(CC2COC(c3ccc(O)c(OC)c3)C2CO)ccc1O` (configuration not stated) [Lariciresinol] yielded an LC retention time of 5.6 min.
`COc1cc(C=CCO)ccc1OC1OC(CO)C(O)C(O)C1O` (configuration not stated) [Coniferin] showed an LC retention time of 3 min.
Molecule `CCC(C)C(N)C(=O)NC(CC(C)C)C(=O)O` (stereo not drawn) [H-Ile-Leu-OH] has an LC retention time of 3.4 min.
`CC(C)CC(NC(=O)C(N)Cc1ccc(O)cc1)C(=O)O` (stereo not drawn) [H-Tyr-Leu-OH] showed an LC retention time of 3.2 min.
For `CCCCCCCCC=CCCCCCCCC(=O)OCC(O)COP(=O)([O-])OCC[N+](C)(C)C` (configuration not stated) [lysoPC(18:1(9Z)/0:0)], the LC retention time was 12 min.
`CCC(C)C(N)C(=O)NC(Cc1ccccc1)C(=O)O` (stereo not drawn) [H-Ile-Phe-OH] showed an LC retention time of 3.9 min.
`CCC(C)C(N)C(=O)O` (configuration not stated) [Isoleucine] showed an LC retention time of 0.795 min.
`Cc1cc2nc3c(=O)[nH]c(=O)nc-3n(CC(O)C(O)C(O)CO)c2cc1C` (configuration not stated) [Riboflavin] showed an LC retention time of 3.92 min.
With `Nc1ncnc2nc[nH]c12` [Adenine] the LC retention time was 0.525 min.
For `O=C(O)Cc1ccccc1` [Phenylacetic acid], the LC retention time was 3.6 min.
In the case of `COc1cccc2[nH]cc(CN)c12` [4-MeO-I3CH2NH2], the LC retention time is reported as 3.2 min.
In the case of `CCC(C)C(NC(=O)C(N)Cc1ccc(O)cc1)C(=O)O` (stereo not drawn) [H-Tyr-Ile-OH], the LC retention time is reported as 2.9 min.
`CCCCCCCCCCCCCCCC(=O)OCC(O)COP(=O)([O-])OCC[N+](C)(C)C` (configuration not stated) [lysoPC(16:0/0:0)] showed an LC retention time of 11.6 min.
Molecule `CCC(C)C(NC(=O)C(N)CC(C)C)C(=O)O` (stereo not drawn) [H-Leu-Ile-OH] has an LC retention time of 3.3 min.
For `CSCCCCCCCC(N)C(=O)O` (configuration not stated) [Pentahomo-Met], the LC retention time was 4.6 min.
In the case of `O=C(O)CCCCCC(=O)O` [Pimelic acid], the LC retention time is reported as 3.47 min.
Molecule `O=C(O)CCCCCCCC(=O)O` [Azelaic acid] has an LC retention time of 5.35 min.
Molecule `O=c1cc[nH]c(=O)[nH]1` [Uracil] has an LC retention time of 0.638 min.
`CSCCCCCCCCC(N)C(=O)O` (configuration not stated) [Hexahomo-Met] showed an LC retention time of 5.4 min.
`O=C(O)CNC(=O)c1ccccc1` [Hippuric acid] gave an LC retention time of 3.39 min.
With `CC(CCC(=O)O)C1CCC2C3C(O)CC4CC(O)CCC4(C)C3CCC12C` (configuration not stated) [Chenodeoxycholic acid] the LC retention time was 10.5 min.
Work on `O=C(O)CCCC(=O)O` [Glutaric acid] yielded an LC retention time of 1.14 min.
`Cc1cn(C2CC(O)C(CO)O2)c(=O)[nH]c1=O` (configuration not stated) [Thymidine] gave an LC retention time of 1.6 min.
`O=C(O)CCCCC(=O)O` [Adipic acid] gave an LC retention time of 2.33 min.
`COn1cc(CN)c2ccccc21` [1-MeO-I3CH2NH2] gave an LC retention time of 3.7 min.
`CC(C)C(NC(=O)C(N)Cc1ccccc1)C(=O)O` (stereo not drawn) [H-Phe-Val-OH] gave an LC retention time of 3 min.
In the case of `COc1cc2ccc(=O)oc2cc1O` [Scopoletin], the LC retention time is reported as 4.5 min.
`NCc1c[nH]c2ccccc12` [Indol-3-ylmethylamine (I3CH2NH2)] showed an LC retention time of 1.8 min.
With `CC(C)CC(N)C(=O)NC(Cc1ccccc1)C(=O)O` (configuration not stated) [H-Leu-Phe -OH] the LC retention time was 4.2 min.
Molecule `NCCS(=O)(=O)O` [Taurine] has an LC retention time of 0.446 min.

Source: the RepoRT retention time repository (doi:10.1007/s00216-013-6954-6)
